From ChEMBL document CHEMBL1201862, “PubChem BioAssay data set” (2004)
Activity calls are given as the source filed them.

What was measured:
BJ [1] = test: cytotoxicity toward BJ-TERT-LT-ST fibroblasts, dose response, cell-based, RAS-independent, luminescence (AID 1935); type: functional; conditions: Homo sapiens;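 also: BJ fibroblasts immortalized with TERT plus LT and ST oncogenes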
BJ [2] = test: cytotoxicity toward BJ-TERT fibroblasts, dose response, cell-based, RAS-independent, luminescence (AID 1933); type: functional; conditions: Homo sapiens
[3] = nonselective inhibitors of cellular cAMP signaling, dose response, counter-screen for MC4R biased antagonist project, cell-based, TR-FRET cAMP detection (AID 602305); type: functional;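 also: U2OS cells stimulated with forskolin near its EC80 as the cAMP inducer; potency is for inhibition of forskolin-stimulated cAMP signaling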
A-375 = test: A375 melanoma cell viability reduction, dose response, counter-screen for MITF modulator project, cherry-pick samples, set 2 (AID 540335); type: functional, cell-based; conditions: Homo sapiens
[4] = HepG2 cell cytotoxicity, dose response, cytotoxicity control for Shn3 inhibitor project, CellTiter-Glo, cherry-picked (AID 624134); type: functional, cell-based
[5] = HEK293T cytotoxicity, dose response, cytotoxicity control for miR-122 modulator project, cell-based, inhibitor set, cherry-pick, set 2 (AID 720697); type: functional
BJ [6] = test: cells; type: functional, cell-based; conditions: Homo sapiens
[7] = miR-122 activators in hepatoma reporter cells, dose response, cell-based, Huh7 psiCHECK-miR122, Renilla luciferase, cherry-picked (AID 651956); type: functional;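 also: huh7 hepatoma cells stably carrying a psiCHECK-2 miR-122 sensor plasmid; renilla luciferase signal reporting endogenous miR-122 activity after 48 h compound exposure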
[8] = HEK293T cytotoxicity, dose response, cytotoxicity control for miR-122 modulator project, cell-based, activator set, cherry-pick (AID 720690); type: functional;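 also: HEK293T human cells scored for general mammalian cytotoxicity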
[9] = Shn3 3'UTR reporter inhibitors, dose response, cell-based, Clone20 osteoblasts, firefly luciferase, cherry-picked (AID 624132); type: functional;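 also: firefly luciferase luminescence from reporter carrying the Shn3 3'UTR in osteoblasts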
Melanocortin receptor 4 = Melanocortin receptor 4 (Homo sapiens, UniProt P32245); test: MC4R antagonist potency on cAMP, dose response, cell-based, TR-FRET, biased antagonists (AID 602298); type: functional;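 also: antagonist potency against agonist-stimulated cAMP production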
Melanocortin receptor 4, sequence (P32245 whole entry): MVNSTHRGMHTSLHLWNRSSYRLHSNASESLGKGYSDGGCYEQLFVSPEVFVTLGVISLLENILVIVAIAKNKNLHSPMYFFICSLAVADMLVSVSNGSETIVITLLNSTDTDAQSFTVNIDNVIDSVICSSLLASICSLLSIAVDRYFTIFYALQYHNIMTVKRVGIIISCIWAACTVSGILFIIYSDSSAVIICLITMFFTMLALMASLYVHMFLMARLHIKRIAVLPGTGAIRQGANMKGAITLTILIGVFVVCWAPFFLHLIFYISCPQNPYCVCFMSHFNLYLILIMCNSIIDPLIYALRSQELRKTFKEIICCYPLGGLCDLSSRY

[10] = control 3'UTR Renilla luciferase suppression, dose response, counter-screen for Shn3 inhibitor project, cell-based, Clone20-Shn3RL, cherry-picked (AID 624133); type: functional
[11] = target: T1, Microphthalmia-associated transcription factor (Homo sapiens, UniProt O75030); test: TRPM1 promoter luciferase signal decrease, dose response, MITF inhibitor project, cell-based, SK-MEL-5, cherry-picked, set 3 (AID 493073); type: functional
T1 sequence (O75030 whole entry): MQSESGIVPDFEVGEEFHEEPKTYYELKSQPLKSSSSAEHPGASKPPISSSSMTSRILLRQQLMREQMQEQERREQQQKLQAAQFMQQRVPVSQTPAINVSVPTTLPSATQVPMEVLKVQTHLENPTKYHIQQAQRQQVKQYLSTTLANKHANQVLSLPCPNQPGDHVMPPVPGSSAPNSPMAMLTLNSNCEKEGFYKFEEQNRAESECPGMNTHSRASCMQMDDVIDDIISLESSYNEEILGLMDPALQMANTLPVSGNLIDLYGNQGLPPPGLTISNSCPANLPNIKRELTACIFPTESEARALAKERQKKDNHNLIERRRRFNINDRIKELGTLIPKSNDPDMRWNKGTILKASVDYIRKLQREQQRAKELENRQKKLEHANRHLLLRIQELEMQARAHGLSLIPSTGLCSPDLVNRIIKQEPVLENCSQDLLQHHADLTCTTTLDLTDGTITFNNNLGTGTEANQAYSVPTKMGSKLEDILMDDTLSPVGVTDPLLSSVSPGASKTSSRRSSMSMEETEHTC

[12] = cytotoxicity in HEK-293T NF-kB-Luc cells, dose response, cytotoxicity control for B/T-cell NF-kB inhibitor project, cell-based, uHTS hits (AID 489019); type: functional;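 also: IC50 reflects cytotoxicity as loss of cell viability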
Jurkat = test: antigen receptor-induced NF-kB inhibitors, dose response, Jurkat, luciferase reporter, luminescence, B- and T-cell (AID 489004); type: functional, cell-based; conditions: Homo sapiens;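 also: NF-kB luciferase reporter Jurkat cells stimulated with PMA plus ionomycin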
[13] = inhibitors of PGC1a acetylation in cells, dose response, cell-based, cherry-picked samples (AID 720514); type: functional;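 also: potency may reflect raised or lowered acetylation signal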
[14] = cytotoxicity toward DRD oncogenic fibroblasts, dose response, cell-based, non-viral oncogenic, luminescence (AID 1934); type: functional; conditions: Homo sapiens
[15] = target: Lysine-specific demethylase 4A (Homo sapiens, UniProt O75164); test: JMJD2A histone demethylase inhibitors, dose response, selectivity assay for GASC-1 inhibitor project, biochemical, DELFIA europium, cherry-picked samples (AID 488840)
Lysine-specific demethylase 4A, sequence (O75164 whole entry): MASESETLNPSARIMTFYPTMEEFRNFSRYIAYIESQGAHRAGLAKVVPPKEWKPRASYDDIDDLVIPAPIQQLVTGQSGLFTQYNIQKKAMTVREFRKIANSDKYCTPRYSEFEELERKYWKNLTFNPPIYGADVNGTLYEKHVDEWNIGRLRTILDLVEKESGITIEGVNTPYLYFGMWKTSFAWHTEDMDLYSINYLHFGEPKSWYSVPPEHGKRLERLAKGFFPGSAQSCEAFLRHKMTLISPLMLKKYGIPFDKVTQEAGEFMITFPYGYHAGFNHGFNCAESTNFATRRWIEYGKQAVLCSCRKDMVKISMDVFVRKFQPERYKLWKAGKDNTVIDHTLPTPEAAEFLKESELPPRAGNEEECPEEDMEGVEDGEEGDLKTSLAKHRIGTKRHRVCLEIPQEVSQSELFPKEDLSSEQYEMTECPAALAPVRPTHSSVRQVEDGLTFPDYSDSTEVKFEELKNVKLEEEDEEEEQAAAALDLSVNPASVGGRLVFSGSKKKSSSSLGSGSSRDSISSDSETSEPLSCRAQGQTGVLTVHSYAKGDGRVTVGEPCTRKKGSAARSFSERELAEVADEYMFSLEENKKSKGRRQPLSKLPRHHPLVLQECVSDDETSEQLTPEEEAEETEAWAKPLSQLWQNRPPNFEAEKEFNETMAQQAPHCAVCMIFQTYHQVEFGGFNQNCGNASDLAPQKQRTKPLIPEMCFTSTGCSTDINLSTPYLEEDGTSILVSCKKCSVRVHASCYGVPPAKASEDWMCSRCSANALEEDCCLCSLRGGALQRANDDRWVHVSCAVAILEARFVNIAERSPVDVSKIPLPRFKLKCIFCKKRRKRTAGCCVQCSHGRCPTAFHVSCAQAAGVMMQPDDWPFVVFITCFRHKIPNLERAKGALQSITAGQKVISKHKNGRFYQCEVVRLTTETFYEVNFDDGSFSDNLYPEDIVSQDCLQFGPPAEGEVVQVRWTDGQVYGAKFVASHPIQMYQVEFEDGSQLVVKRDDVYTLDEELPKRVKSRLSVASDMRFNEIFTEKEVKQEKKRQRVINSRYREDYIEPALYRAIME

[16] = target: T2, Tyrosine-protein phosphatase non-receptor type 22 (Homo sapiens, UniProt Q9Y2R2); test: LYP (PTPN22) phosphatase inhibitor potency, SAR follow-up, biochemical, pCAP fluorogenic substrate, fluorescence, set 3 (AID 449727); type: functional
T2 sequence (Q9Y2R2 whole entry): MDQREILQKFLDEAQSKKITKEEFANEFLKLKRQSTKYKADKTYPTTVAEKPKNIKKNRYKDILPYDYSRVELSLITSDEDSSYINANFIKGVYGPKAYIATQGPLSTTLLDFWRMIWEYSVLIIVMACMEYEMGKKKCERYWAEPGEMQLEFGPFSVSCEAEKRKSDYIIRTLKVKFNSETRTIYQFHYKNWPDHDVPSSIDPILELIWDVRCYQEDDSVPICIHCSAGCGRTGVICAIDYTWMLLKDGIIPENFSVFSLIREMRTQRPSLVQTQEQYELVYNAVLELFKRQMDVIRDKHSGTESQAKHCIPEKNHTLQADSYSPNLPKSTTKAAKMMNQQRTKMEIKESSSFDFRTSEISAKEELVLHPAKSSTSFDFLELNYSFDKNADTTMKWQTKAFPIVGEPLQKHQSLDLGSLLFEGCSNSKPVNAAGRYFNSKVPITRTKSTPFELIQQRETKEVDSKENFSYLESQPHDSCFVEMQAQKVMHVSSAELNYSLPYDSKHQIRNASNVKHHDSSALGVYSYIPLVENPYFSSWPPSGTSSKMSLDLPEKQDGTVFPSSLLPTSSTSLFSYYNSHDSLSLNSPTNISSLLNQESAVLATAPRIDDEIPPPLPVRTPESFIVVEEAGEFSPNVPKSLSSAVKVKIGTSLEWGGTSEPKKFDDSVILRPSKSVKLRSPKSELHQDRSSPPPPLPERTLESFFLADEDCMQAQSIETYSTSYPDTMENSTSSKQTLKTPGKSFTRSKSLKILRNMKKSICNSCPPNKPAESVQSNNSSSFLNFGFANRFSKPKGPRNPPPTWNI

[17] = target: T3, Dual specificity protein phosphatase 3 (Homo sapiens, UniProt P51452); test: SAR VHR1 Fluorescent Assay for In Vitro dose response studies Set 2. [Related pubchem assays (depositor defined):AID1654, AID1661, AID1878]; type: functional
T3 sequence (P51452 whole entry): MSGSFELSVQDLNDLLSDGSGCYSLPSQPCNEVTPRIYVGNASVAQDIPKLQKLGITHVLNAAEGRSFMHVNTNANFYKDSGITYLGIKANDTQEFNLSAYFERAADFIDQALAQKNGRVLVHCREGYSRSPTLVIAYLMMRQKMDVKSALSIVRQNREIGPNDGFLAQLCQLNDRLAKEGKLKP

[18] = target: Tyrosine-protein phosphatase non-receptor type 12 (Homo sapiens, UniProt Q05209); test: SAR Selectivity Analysis of small molecule inhibitors of PEST using pCAP in a fluorescence assay. [Related pubchem assays (depositor defined):AID1779, AID1784, AID2135]; type: functional
Tyrosine-protein phosphatase non-receptor type 12, sequence (Q05209 whole entry): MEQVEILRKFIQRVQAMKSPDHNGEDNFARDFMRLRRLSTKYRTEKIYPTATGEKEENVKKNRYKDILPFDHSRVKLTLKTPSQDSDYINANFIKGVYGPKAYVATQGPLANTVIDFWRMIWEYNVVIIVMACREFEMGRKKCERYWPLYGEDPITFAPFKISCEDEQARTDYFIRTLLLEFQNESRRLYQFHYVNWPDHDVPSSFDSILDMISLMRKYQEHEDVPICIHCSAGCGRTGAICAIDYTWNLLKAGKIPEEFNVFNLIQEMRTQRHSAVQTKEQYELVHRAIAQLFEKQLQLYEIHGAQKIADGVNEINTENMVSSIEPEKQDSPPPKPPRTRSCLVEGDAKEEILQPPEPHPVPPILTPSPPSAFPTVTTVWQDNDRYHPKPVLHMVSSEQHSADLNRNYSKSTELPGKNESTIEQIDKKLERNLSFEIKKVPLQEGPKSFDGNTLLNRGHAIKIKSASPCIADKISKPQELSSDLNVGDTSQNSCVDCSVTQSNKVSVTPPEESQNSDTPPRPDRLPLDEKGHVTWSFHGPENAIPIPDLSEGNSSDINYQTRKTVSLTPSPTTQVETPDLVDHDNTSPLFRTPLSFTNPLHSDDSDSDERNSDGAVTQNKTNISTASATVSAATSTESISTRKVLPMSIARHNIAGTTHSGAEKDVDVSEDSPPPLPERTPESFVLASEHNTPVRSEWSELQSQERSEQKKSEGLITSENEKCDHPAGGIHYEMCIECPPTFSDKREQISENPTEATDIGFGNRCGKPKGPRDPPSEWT

[19] = target: T4, Tyrosine-protein phosphatase non-receptor type 7 (Homo sapiens, UniProt P35236); test: HePTP (PTPN7) phosphatase inhibitor potency, SAR follow-up, biochemical, set 2 (AID 449736); type: functional
T4 sequence (P35236 whole entry): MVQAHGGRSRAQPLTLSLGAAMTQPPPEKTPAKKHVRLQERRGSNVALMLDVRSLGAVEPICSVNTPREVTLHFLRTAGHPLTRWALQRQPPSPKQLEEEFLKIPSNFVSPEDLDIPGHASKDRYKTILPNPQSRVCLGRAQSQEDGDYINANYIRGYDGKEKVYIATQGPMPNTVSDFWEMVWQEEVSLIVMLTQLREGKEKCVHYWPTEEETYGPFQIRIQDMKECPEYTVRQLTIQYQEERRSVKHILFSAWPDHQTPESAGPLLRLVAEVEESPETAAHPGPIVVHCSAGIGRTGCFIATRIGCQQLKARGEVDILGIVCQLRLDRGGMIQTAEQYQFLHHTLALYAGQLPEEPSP

[20] = target: T2, Tyrosine-protein phosphatase non-receptor type 22; test: SAR LYP1 Fluorescent Assay using OMFP substrate for In Vitro dose response studies - Set 3. [Related pubchem assays (depositor defined):AID1779, AID1784, AID2140, AID2686]; type: functional
[21] = target: Dual specificity protein phosphatase 6 (Rattus norvegicus, UniProt Q64346); type: functional;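 also: confirmatory in vitro dose-response testing of MKP-3 inhibition; recombinant His-tagged MKP-3 made in E. coli BL21 with OMFP substrate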
Dual specificity protein phosphatase 6, sequence (Q64346 whole entry): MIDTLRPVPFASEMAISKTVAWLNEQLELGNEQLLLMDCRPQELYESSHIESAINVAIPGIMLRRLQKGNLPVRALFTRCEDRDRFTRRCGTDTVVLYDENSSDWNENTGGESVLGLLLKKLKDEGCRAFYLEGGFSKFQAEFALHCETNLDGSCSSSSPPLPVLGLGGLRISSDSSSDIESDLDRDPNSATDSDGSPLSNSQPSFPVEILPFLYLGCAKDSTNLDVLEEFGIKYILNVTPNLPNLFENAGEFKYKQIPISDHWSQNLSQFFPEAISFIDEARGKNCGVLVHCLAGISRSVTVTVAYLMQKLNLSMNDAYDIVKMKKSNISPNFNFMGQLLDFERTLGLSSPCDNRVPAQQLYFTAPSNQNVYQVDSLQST

[22] = target: T4, Tyrosine-protein phosphatase non-receptor type 7; test: redox-dependent HePTP inhibition, mechanism study, biochemical, fluorescence (AID 2068); type: functional
Phospholipase D2 = Phospholipase D2 (Homo sapiens, UniProt O14939); test: PLD2 inhibitor potency in cells, dose response (AID 602147); type: functional;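 also: cellular assay in HEK293 cells overexpressing GFP-tagged PLD2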
Phospholipase D2, sequence (O14939 whole entry): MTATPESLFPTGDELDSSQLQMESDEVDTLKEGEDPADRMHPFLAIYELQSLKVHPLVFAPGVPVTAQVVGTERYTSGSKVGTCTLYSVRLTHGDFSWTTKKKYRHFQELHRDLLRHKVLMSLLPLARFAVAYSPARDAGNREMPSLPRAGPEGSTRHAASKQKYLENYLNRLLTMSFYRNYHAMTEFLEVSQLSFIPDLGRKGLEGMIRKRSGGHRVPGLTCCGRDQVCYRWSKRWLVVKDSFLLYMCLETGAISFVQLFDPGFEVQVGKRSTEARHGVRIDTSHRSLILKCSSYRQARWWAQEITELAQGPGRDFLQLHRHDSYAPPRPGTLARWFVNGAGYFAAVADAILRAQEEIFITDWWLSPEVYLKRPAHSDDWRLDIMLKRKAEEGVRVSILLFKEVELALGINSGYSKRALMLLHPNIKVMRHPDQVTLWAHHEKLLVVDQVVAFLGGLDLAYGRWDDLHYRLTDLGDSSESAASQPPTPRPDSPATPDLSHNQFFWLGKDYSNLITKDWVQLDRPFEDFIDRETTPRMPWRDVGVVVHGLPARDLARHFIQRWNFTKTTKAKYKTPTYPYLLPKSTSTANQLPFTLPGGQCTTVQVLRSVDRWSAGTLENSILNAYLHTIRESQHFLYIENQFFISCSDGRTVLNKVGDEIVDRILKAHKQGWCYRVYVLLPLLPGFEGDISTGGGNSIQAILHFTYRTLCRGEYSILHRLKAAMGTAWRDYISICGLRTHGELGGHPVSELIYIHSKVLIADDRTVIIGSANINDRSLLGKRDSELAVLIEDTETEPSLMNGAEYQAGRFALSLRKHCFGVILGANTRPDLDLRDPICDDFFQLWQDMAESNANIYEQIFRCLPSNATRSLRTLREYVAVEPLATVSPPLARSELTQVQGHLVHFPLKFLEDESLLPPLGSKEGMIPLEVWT

[23] = target: T3, Dual specificity protein phosphatase 3; test: SAR VHR1 Fluorescent Assay for In Vitro dose response studies Set 3. [Related pubchem assays (depositor defined):AID1654, AID1661, AID1878]; type: functional

C#CC(=O)N(c1ccc(OC)c(OC)c1)C(C(=O)NC1CCCC1)c1cccs1 (configuration not stated)
inactive: IC50 [3] > 64.6 µM | IC50 [12] 73 µM
active: EC50 (BJ [1]) 7.04 µM | AC50 (A-375) 5.92 µM | AC50 [4] 2.4 µM | AC50 [5] < 0.195 µM | AC50 [7] 0.651 µM | AC50 [8] < 0.195 µM | AC50 [9] 3.32 µM | IC50 (Melanocortin receptor 4) 2.51 µM | AC50 [10] 14.3 µM | AC50 [11] 3.31 µM | IC50 (Jurkat) 0.26 µM | AC50 [13] 3.18 µM | EC50 [14] 3.54 µM
inconclusive: EC50 (BJ [2]) 0.171 µM | EC50 (BJ [6]) 5.23 µM

CCOC(=O)CCCCCC(=O)Nc1ccc2c(c1)CC(=O)N([C@@H](C)CO)C[C@H](C)[C@@H](CN(C)C(=O)Nc1ccc3c(c1)OCO3)O2
inactive: AC50 [15] > 60 µM

CCOC(=O)COc1c(Cl)cc(/C=C2/S/C(=N/c3ccc(F)cc3)NC2=O)cc1OCC
inactive: IC50 [17] > 100 µM
active: IC50 [16] 54.2 µM | IC50 [18] 9.35 µM | IC50 [19] 1.4 µM | IC50 [20] 74.8 µM | IC50 [21] 66.4 µM | IC50 [22] 10.5 µM

Cc1cccc(C(=O)N[C@@H](C)CN2CCC3(CC2)C(=O)NCN3c2ccccc2)c1
active: IC50 (Phospholipase D2) 20 µM

Cc1cc(NC(=O)c2ccccc2Cl)ccc1NC(=O)CSc1nnc(-c2cccs2)n1C
active: IC50 [23] 25.3 µM
